# Assay results from patent US8096982B2, “Method and apparatus to enhance optical transparency of biological tissues” (priority 1998, dated 2012).
# What was measured:
# sclera = assay type: in vivo, rabbit; conditions: for signs of inflammation on follow up examination: rabbit, in vivo; for time for sclera to turn clear: topical drops on exposed sclera, conjunctiva surgically separated
# Procedure: In order to assess the longitudinal effects of topical administration of glycerol or diatrizoate meglumine acid on the sclera, in-vivo experiments were carried out on two rabbits, and the eyes were examined for signs of inflammation once a day for approximately 1 week.
# Each rabbit was put under anesthesia using an intra-muscular injection of Rompin® and Ketamine®. The conjunctiva serves as the permeability barrier for the sclera, and therefore, the conjunctiva was surgically separated from the sclera and the distal surface of the sclera was exposed. Topical drops of glycerol were administered on one eye, and of diatrizoate meglumine acid in the contra-lateral eye, for both rabbits. In the case of glycerol, the sclera turned clear, almost instantaneously (in less than 5 seconds), whereas in the case of diatrizoate meglumine acid, the sclera turned clear in approximately 1 minute. The conjunctiva was stretched over the sclera, again, and stay sutures were used to re-attach the conjunctiva to the limbal region. Ocumycing was administered topically to both eyes which had undergone surgery, to prevent infection. After approximately 5-10 minutes, the sclera in both eyes became opaque, again.
# porcine sclera = test: Diffuse transmission through excised porcine sclera before and after submersion in clarifying agent; conditions: maximum increase, at 750 nm, range 350-750 nm
# Procedure: Porcine eyes were enucleated immediately post-mortem, and were transported to the laboratory in a wet gauze pad, held at 4° C. during transport in a well-insulated cooler. Each eye was inflated with saline. Limbal conjunctiva and Tenons capsule were dissected and excised using a pair of blunt Wescott scissors. A No. 64 Beaver blade was then used to outline 20 mm×20 mm sections of the sclera from the limbus to the equator of the globe. Incisions were deepened to the supra-choroidal space. Sections of sclera were then lifted off the intact choroid and ciliary body. Scleral thickness was measured and was determined to be 1.65 mm on average.
# Three prepared sections of sclera were each then placed between quartz slides, and then between two flat aluminum plates. The tissue sample assembly was then fixed against the input port of a diffuse reflectance accessory (integrating sphere) of a Varian Cary 5E™ UV-Vis-NIR spectrophotometer, and diffuse transmission was measured for wavelengths ranging from 350 nm to 750 nm. The three tissue samples were then submerged in separate containers of glycerol, the first being submerged for 5 minutes, the second for 10 minutes, and the third for 15 minutes. Each sample was then again placed in the tissue assembly and was fixed against the input port of the diffuse reflectance accessory of the spectrophotometer, and the diffuse transmission was measured again over the same wavelength range as above. These measurements were also carried out, using three other scleral samples, and diatrizoate meglumine acid as the IRIM agent.
# [1] = Optical transmission characteristics of the agent in a cuvette (UV-Vis-NIR spectrophotometer); assay type: physicochemical
# Procedure: Diatrizoate meglumine acid, which is commercially known as Hypaque®, is a radiographic injection solution. […] In an experiment, a cuvette was filled with diatrizoate meglumine acid and its optical transmission characteristics were evaluated using a Varian CARY 5E™ UV-Vis-NIR spectrophotometer.
# human skin = conditions: approximately 8 minutes after topical administration; stratum corneum tape-stripped; 480-800 nm
# Procedure: Two skin surfaces on the forearm were shaved and cleaned prior to measurements. A tape-strip method was used to remove the stratum corneum. […] The topical drugs administered formed an approximate circle of 1 cm in diameter. The drugs were left to diffuse into the tissue for approximately 8 minutes.
# Surface reflectance measurements were made immediately after tape stripping of the skin (prior to topical administration of the drugs), and subsequently, approximately 8 minutes after topical administration of the drugs. A CSI Portable Diffuse Reflectance Spectrometer, developed by Canfield Scientific Instruments, Inc. (Fairfield, N.J.), was used for these surface measurements. […] One leg of the bifurcated fiber optic bundle is coupled to the lamp and the other leg is coupled to the spectrometer. The joined end of the fiber bundle (approximately 3 mm in diameter) was placed in contact with the skin surface from which measurements were made. The measurements were made across a 330 nm to 840 nm spectral range, with a 0.5 nm resolution. The integration time for the measurements was set at 50 kHz.
# The tape stripping of the skin causes a mild irritation of the skin, leading to a transient erythema.
# edematous corneas = conditions: glycerol applied topically in concentrations from 50% to 100%; cited from earlier work
Structure (SMILES),signs of inflammation on follow up examination (sclera),time for sclera to turn clear (sclera),increase in diffuse transmission through the sclera (porcine sclera; submerged 5 minutes),increase in diffuse transmission through the sclera (porcine sclera; submerged 10 minutes) [%],increase in diffuse transmission through the sclera (porcine sclera; submerged 15 minutes) [%],optical transmission ([1]; wavelengths above 400 nm),optical transmission ([1]; wavelengths below approximately 400 nm),"increase in absorbance of tissue, in-vivo (human skin)",clearing of edematous corneas following topical administration (edematous corneas)
CC(=O)Nc1c(I)c(NC(C)=O)c(I)c(C(=O)O)c1I.CNC[C@H](O)[C@@H](O)[C@H](O)[C@H](O)CO [diatrizoate meglumine acid],no signs of inflammation,approximately 1 minute,up to 200%,≤ 395,≤ 975,very high transmission,very low transmission,,
OCC(O)CO [glycerol],no signs of inflammation,less than 5 seconds,up to 240%,≤ 660,≤ 1090,,,up to 60.5%,"effective in clearing edematous corneas, within two minutes"
